Laboratory results: patent US6376198B1, “Assay for non-peptide agonists to peptide hormone receptors” (New England Medical Center Hospitals, Inc., priority 1995, dated 2002)
Changes are numbered by the printed parent chain. “Also recorded” adds a separate entry of the source.

How the values were obtained:
[1] = biological target: T1, human CCK-B/gastrin receptor (wild-type) (Homo sapiens, UniProt P32239); test: Total inositol phosphate production, COS-7 cells expressing wild-type receptor; type: cell-based; details: for IC50: 95% C.I. in brackets, read-out: Wild-type receptor IC50(nM) 95% C.I., signaling potency
T1 construct: expressed in transfected cells; host or cells: COS-7
T1 sequence (P32239 1-447): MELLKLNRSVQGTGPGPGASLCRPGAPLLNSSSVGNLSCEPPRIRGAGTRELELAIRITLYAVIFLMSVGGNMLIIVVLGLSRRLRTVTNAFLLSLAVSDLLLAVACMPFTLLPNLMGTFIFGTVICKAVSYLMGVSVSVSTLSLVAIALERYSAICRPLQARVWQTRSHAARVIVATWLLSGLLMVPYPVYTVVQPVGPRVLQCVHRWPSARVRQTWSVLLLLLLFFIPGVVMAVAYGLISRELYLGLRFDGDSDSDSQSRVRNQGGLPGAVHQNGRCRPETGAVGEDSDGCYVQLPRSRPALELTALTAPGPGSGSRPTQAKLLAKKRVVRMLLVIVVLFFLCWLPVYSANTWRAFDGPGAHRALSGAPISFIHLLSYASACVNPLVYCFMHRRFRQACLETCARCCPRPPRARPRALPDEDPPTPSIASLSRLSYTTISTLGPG

[2] = biological target: T1, human CCK-B/gastrin receptor (wild-type); test: 125I-CCK-8 competition binding, COS-7 cells expressing wild-type receptor; details: for Ratio (Wild-type/Mutant) of Ki: binding affinities; for Ki: wild-type receptor, read-out: Wild-type receptor Ki(nM), 125I CCK-8 binding affinity
Protocol: (§1) The binding of a ligand to a CCK receptor, e.g., the CCK-A or the CCK-B/gastrin receptor, can be measured according to the following example. In this example, the binding affinity of a ligand to the human CCK-B/gastrin receptor is measured.
(§2) Twenty-four hours after transfection cells were split into 24-well dishes (2×10^4 cells/well) (Costar). After an additional 24 hours, competition binding experiments were performed in Hank's buffer supplemented with 25 mM phenylmethylsulfonyl fluoride (PMSF). […] Equilibrium binding occurred after incubation for 80 min. at 37° C. Cell monolayers were then washed three times, hydrolyzed in 1 N NaOH, and the amount of radioactivity to the receptor was quantified.
(§3) The competition data were analyzed using computer software which is specifically designed for the purpose of radioligand binding assays (Inplot 4.0, GraphPad, San Diego, Calif.).

[3] = biological target: T2, human CCK-B/gastrin receptor 325L→E mutant (Homo sapiens, UniProt P32239, L325E); test: 125I-CCK-8 competition binding, COS-7 cells expressing constitutively active mutant; details: read-out: 325L→E Mutant Ki(nM), 125I CCK-8 binding affinity
T2 construct: expressed in transfected cells; host or cells: COS-7
T2 sequence (P32239 1-447 L325E): T1 sequence (P32239 1-447) with L325E
Protocol: as §1
as §2, with “quantified. […] All binding experiments were repeated three to five times.” for “quantified.”
as §3

[4] = biological target: T2, human CCK-B/gastrin receptor 325L→E mutant; test: Total inositol phosphate production, COS-7 cells expressing constitutively active mutant; type: cell-based; details: for IC50: 325L→E mutant, 95% C.I. in brackets, read-out: 325L→E Mutant IC50(nM) 95% C.I., signaling potency; for intrinsic activity / functional classification: constitutively active 325L→E mutant
[5] = biological target: T3, mutant human CCK-A receptor pMHA35 (Homo sapiens, UniProt P32238, E138Q); test: Intrinsic activity at mutant CCK-A receptor pMHA35 (138-ERY-140 to QRY); type: cell-based; details: basal signaling not increased
T3 construct: expressed in transfected cells; host or cells: COS-7 (inferred from the general inositol phosphate method)
T3 sequence (P32238 1-428 E138Q): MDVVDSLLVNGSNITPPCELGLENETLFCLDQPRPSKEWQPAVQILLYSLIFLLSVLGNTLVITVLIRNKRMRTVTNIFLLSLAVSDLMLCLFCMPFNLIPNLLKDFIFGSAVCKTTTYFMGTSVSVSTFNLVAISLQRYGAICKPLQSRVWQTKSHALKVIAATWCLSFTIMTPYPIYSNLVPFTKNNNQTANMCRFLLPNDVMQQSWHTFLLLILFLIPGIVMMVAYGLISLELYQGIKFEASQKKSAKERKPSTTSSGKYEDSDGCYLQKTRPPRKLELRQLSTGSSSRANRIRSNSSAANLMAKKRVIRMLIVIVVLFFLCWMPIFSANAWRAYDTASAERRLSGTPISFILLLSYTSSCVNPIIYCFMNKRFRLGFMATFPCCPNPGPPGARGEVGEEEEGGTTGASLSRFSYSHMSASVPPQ
From the text: An example is given of a mutant human CCK-A receptor that enhances the intrinsic activity of the partial ‘peptoid’ agonist PD 135,158, yet causes no apparent increase in agonist-independent basal receptor activity, is the mutant CCK-A receptor pMHA35. pMHA35 was made by replacing amino acids 138-ERY-140 of the human wild-type CCK-A receptor with QRY in the vector pcDNAI. (See FIG. 2 for an illustration of the wild-type CCK-A receptor amino acid sequence.)
This method, based on alignment, was employed to construct a CCK-A mutant receptor. A multiple alignment map was made which included the human and rat CCK-A sequences, the mastomys, rat, human, and canine CCK-B/gastrin receptor, and a Xenopus CCK-A/CCK-B intermediate receptor (CCK-XL; FIG. 2). Based on this map, conserved amino acids 138-ERY-140 of the CCK-A receptor were replaced with amino acids QRY, based on a known constitutively active rhodopsin mutant with enhanced transducin activation (Arnis et al., J. Biol. Chem., 269:23879-81, 1994). The altered amino acid residues are positioned in transmembrane domain III and flank the second intracellular loop.

rat CCK-A = details: single experiment
[6] = biological target: human wild-type CCK-B receptor (Homo sapiens, UniProt P32239); details: 10^-7 M
Protocol: Measurement of [Ca^2+]: Forty-eight hours after transfection with hCCKB-pcDNAI, COS-7 cells were loaded with the Ca^2+ fluorophore fura-2 in modified Krebs-Ringer bicarbonate buffer. […] Extracellular calcium can be chelated with EGTA (2.5 mM) to confirm that a gastrin-induced increase in [Ca^2+] originates primarily from intracellular [Ca^2+] pools.

Xenopus CCK receptor = Xenopus CCK receptor (Xenopus laevis, UniProt P70031); details: single experiment
Chain of Xenopus CCK receptor (P70031 whole entry): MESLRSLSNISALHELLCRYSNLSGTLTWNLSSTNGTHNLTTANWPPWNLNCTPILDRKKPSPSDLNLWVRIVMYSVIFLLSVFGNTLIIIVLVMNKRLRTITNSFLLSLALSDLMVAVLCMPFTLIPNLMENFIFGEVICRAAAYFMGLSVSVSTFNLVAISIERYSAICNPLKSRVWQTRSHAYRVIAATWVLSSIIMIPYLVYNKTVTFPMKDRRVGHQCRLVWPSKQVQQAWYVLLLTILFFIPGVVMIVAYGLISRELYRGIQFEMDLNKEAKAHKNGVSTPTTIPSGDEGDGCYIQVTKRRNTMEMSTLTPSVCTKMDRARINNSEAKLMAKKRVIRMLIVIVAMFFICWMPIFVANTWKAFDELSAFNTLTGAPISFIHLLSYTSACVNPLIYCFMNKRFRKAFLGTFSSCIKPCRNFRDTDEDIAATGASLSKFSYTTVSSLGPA
Protocol: COS-7 cells transfected with receptor cDNA-pcDNAI were cultured in inositol-free, serum-free Dulbecco's modified Eagle's medium (DMEM, GIBCO), supplemented with 3 μCi/ml ^3 H-myo-inositol (NEN, 45-80 Ci/mmol), for 18 hours prior to analysis. The cells were then washed twice with DMEM/10 mM LiCl2 and twice with phosphate-buffered saline/10 mM LiCl2. After stimulation with putative agonists in phosphate-buffered saline 10/mM LiCl2 for 30 minutes at 37° C., cells were scraped in ice-cold methanol. […] The upper phase was analyzed for inositol phosphates by strong anion exchange chromatography, using Dowex 1-X8 columns (BIORAD) and differential elution with water/60 mM ammonium fornate/2 M ammonium fornate. Eluted radioactivity was measured by liquid scintillation counting, and inositol phosphate content was expressed as a percentage of total ^3H-radioactivity applied to the columns.
In FIG. 11, basal levels of inositol phosphate production were measured for human CCK-A hCCK-A), human CCK-B (hCCK-B), dog CCK-B (dCCK-B), mouse CCK-B (mCCK-B), and the mastomys CCK receptor (FIG. 11, part A), and expressed relative to the basal level of hCCK-B.
Single experiments were also performed for the rat CCK-B/gastrin receptor and for the related Xenopus CCK receptor (Table 2).

Row | Compound | intrinsic activity / functional classification ([1]; wild-type receptor) | Ratio (Wild-type/Mutant) of Ki [2] | Ki [2] | Ki [3] | intrinsic activity / functional classification [4] | further results
1 | C[C@](Cc1c[nH]c2ccccc12)(NC(=O)OC1C2CC3CC(C2)CC1C3)C(=O)NC[C@H](NC(=O)/C=C/C(=O)O)c1ccccc1 (stereo partly drawn) [PD 136,450] | partial agonists | 1.68 | 0.99 ± 0.1 nM | 0.59 ± 0.12 nM | almost full agonists | Ratio (Wild-type/Mutant) of signaling potencies [1]: 0.62; IC50 ([1]; wild-type receptor): 0.36 nM; IC50 [4]: 0.58 nM
2 | azabicyclo[3.2.2]nonane benzodiazepine [L-740,093 R] |  | 1.06 | 0.19 ± 0.02 nM | 0.18 ± 0.04 nM | reduces the basal activity of the constitutively active receptor almost to wild-type levels | 
3 | CC1(C)[C@H]2CC[C@@]1(C)[C@H](OC(=O)N[C@](C)(Cc1c[nH]c3ccccc13)C(=O)NC[C@H](NC(=O)CCC(=O)O)c1ccccc1)C2 [PD 135,158] | partial agonists | 2.23 | 2.25 ± 0.61 nM | 1.01 ± 0.19 nM | almost full agonists | Ratio (Wild-type/Mutant) of signaling potencies [1]: 1.04; IC50 ([1]; wild-type receptor): 1.05 nM; IC50 [4]: 1.01 nM; intrinsic activity at mutant versus wild-type CCK-A receptor [5]: significantly increased
4 | CCK-8s |  |  |  |  |  | CCK-8s stimulated (% human basal) inositol phosphate (rat CCK-A): 684 % human basal; change in free cytosolic calcium [Ca2+]i [6]: marked increase in free cytosolic calcium; CCK-8s stimulated (% human basal) inositol phosphate (Xenopus CCK receptor): 442 % human basal
5 | Cc1cccc(NC(=O)N[C@@H]2N=C(c3ccccc3)c3ccccc3N(C)C2=O)c1 [L-365,260] | barely detectable, yet significant, increase in inositol phosphate production |  |  |  |  | efficacy compared to the full agonist CCK-8s (inositol phosphate) ([4]; 325L→E constitutively active mutant): 62%
6 | Cc1cccc(NC(=O)N[C@@H]2N=C(c3ccccc3)c3ccccc3N(CC(=O)c3ccccc3C)C2=O)c1 [YM022] | almost no intrinsic activity | 0.88 | 0.07 ± 0.01 nM | 0.08 ± 0.01 nM | almost no intrinsic activity; also recorded: weak inverse agonist | pA2, block of CCK-8s induced inositol phosphate production ([1]; wild-type receptor, agonist CCK-8s): 9.78; pA2, block of CCK-8s induced inositol phosphate production ([4]; constitutively active receptor, agonist CCK-8s): 9.37; pA2, block of L-740,093 S induced inositol phosphate production ([4]; constitutively active receptor, agonist L-740,093 S (FIG. 4)): 9.54
7 | azabicyclo[3.2.2]nonane benzodiazepine [L-740,093 S] |  | 1.22 | 19.5 ± 1.5 nM | 16 ± 1.4 nM | almost a full agonist | efficacy compared with CCK-8s (inositol phosphate) ([1]; human wild-type receptor): 25%
